Results taken from patent US8357798B2, “Process for preparing N-alkylated hydroxypyrimidinone compounds” (Merck Sharp & Dohme Corp., priority 2004, dated 2013).
Counter-ions that a name gives are not always drawn.

Columns and labels:
[1] = hygroscopicity (vapor sorption analysis); assay type: physicochemical; settings: for weight when equilibrated back down to 5% RH: 5% RH after 95% RH; for weight increase when equilibrated at 95% RH: 95% RH at 25° C.
Procedure: Hygroscopicity data was obtained on a VTI Symmetrical Vapor Sorption Analyzer Model SGA-1. Data was collected at room temperature from 5-95% relative humidity and back, 5% relative humidity change per step. Equilibrium conditions were 0.01 weight percent change in 5 minutes with a maximum equilibration time of 180 minutes.

HIV integrase = HIV integrase (Human immunodeficiency virus type 1 group M subtype B, UniProt P04585); assay: integrase inhibition assay in which strand transfer is catalyzed by recombinant integrase; assay type: biochemical; settings: assay of Example 193 of WO 02/30930
Source text: Compound A is an inhibitor of HIV integrase. […] The strand transfer assay is described in Example 193 of WO 02/30930.

[2] = test system: acute HIV infection of T-lymphoid cells; assay: assay for the inhibition of acute HIV infection of T-lymphoid cells; assay type: cell-based; settings: in accordance with Vacca et al., PNAS 1994, 91: 4096-4100
solubility in water = assay type: physicochemical
[3] = listed as Form 1 Crystalline Potassium Salt of Compound A

Cc1nnc(C(=O)NC(C)(C)c2nc(C(=O)NCc3ccc(F)cc3)c(O)c(=O)n2C)o1 [listing 1 of 2 here]
weight when equilibrated back down to 5% RH [1, 3]: returned back to approximately its dry weight | weight increase when equilibrated at 95% RH [1, 3]: 1.8% | phase by XRPD after the hygroscopicity experiment ([1]; XRPD after 5-95% RH cycle): had not changed phases

Cc1nnc(C(=O)NC(C)(C)c2nc(C(=O)NCc3ccc(F)cc3)c(O)c(=O)n2C)o1 [listing 2 of 2 here]
weight when equilibrated back down to 5% RH [1]: returned to its dry weight | weight increase when equilibrated at 95% RH [1]: 1%

Cc1nnc(C(=O)NC(C)(C)c2nc(C(=O)NCc3ccc(F)cc3)c(O)c(=O)n2C)o1 [Compound A, N-(4-fluorobenzyl)-5-hydroxy-1-methyl-2-(1-methyl-1-{[(5-methyl-1,3,4-oxadiazol-2-yl)carbonyl]amino}ethyl)-6-oxo-1,6-dihydropyrimidine-4-carboxamide]
inhibition of integrase strand transfer (HIV integrase): potent inhibitor | inhibition of acute HIV infection of T-lymphoid cells [2]: active | solubility in water (solubility in water): limited

Cc1nnc(C(=O)NC(C)(C)c2nc(C(=O)NCc3ccc(F)cc3)c(O)c(=O)n2C)o1 [potassium salt of Compound A]
solubility in water (solubility in water): comparatively quite soluble | solubility in water compared to the free base (solubility in water; relative to Compound A free base): significantly more soluble
